From patent US20220249661A1, “Pharmaceutical composition for preventing or treating inflammatory bowel disease comprising Tumor necrosis factor alpha inhibitor and Prostaglandin E2” (SAMSUNG LIFE PUBLIC WELFARE FOUNDATION, priority 2021, published 2022)

Legend:
Assay type in all cases: cell-based, human
[1] = system: normal person-derived intestinal organoids; assay: MTT assay (cell viability), normal person-derived organoids
Procedure: (§1) To evaluate the cell viability of organoids, 100 μL of basal medium containing MTT (3-[4,5-dimethylthiazol-2-yl]-2,5-diphenyltetrazolium bromide) (Sigma-Aldrich) at a concentration of 500 μg/ml was added to each well of a culture plate and incubated for 2 hours at 37° C. To remove the medium and dissolve the Matrigel, 10 μL of 21 SDS (sodium dodecyl sulfate) solution was added thereto, followed by incubation for 2 hours. After adding 100 μL of detergent reagent, the organoids were further incubated for 1 hour, and the absorbance was measured at 562 nm for quantification. Statistical analysis was performed by ANOVA using Bonferroni's multiple comparison test (* p<0.05, ** p<0.01 and *** p<0.001).
(§2) To evaluate cell viability, MTT assay was performed in the same manner as in Experimental Example 2. Statistical analysis was performed by ANOVA using Bonferroni's multiple comparison test (* p<0.05, ** p<0.01 and *** p<0.001).

[2] = system: normal person-derived intestinal organoids; assay: Organoid reconstitution assay, normal person-derived organoids
Procedure: (§3) In order to evaluate the organoid-forming ability of intestinal crypts obtained from normal persons and patients with Crohn's disease, 100 intestinal crypts per 25 μL of Matrigel were dispensed into maintenance medium. The culture medium was changed once every two days. The number of viable organoids and enteroids per well was counted under a microscope (CK40, Olympus). The organoid-forming efficiency was calculated as the ratio of available organoids per 100 intestinal crypts. The organoid reconstitution rate was calculated by counting the number of organoids on day 4 and the number of organoids on day 10. Statistical analysis was performed by ANOVA using Bonferroni's multiple comparison test (* p<0.05, ** p<0.01 and *** p<0.001).
(§4) Normal person-derived organoids were cultured in a maintenance medium for 2 days to obtain a stable number of organoids, and then the medium was replaced with a differentiation medium every 2 days. For each experimental group, human recombinant TNFα and PGE2 (Cayman Chemical Company) or infliximab were added to the culture medium every day. The organoid reconstitution rate was calculated by comparing the number of organoids on day 4 and the number of organoids on day 10.

[3] = system: Crohn's disease patient-derived intestinal organoids; assay: Organoid reconstitution assay, Crohn's disease patient-derived organoids
Procedure: as §3, §4
(§5) FIGS. 20 and 21 show the results of analyzing the changes in organoid reconstitution rate and cell viability of TNFα-treated Crohn's disease patient-derived organoids by infliximab and PGE2. Cases in need of actual infliximab treatment or potential PGE2 treatment are Crohn's disease patients, and based on the information obtained from the normal person-derived organoids, the effects of infliximab and PGE2 on Crohn's disease patient-derived organoids with reduced intestinal epithelial regeneration ability were evaluated.

LGR5 [4] = assay: Immunohistochemistry, LGR5+ cells per organoid, Crohn's disease patient-derived organoids; settings: TNFα-treated; vs normal person-derived organoids
Procedure: (§6) After removing the culture medium, the organoids were washed with PBS and fixed in cold 4% paraformaldehyde at room temperature for 30 minutes. The fixed organoids were washed with PBS and embedded in HistoGel (Thermo Fisher). HistoGel blocks were used for paraffin embedding and sectioned for histologic examination and IHC. Histologic evaluation was performed using hematoxylin-eosin-stained sections. After heating-induced epitope retrieval with citrate buffer, IHC was performed using the following antibodies: cleaved caspase-3 (Asp175, 1:200 dilution, Cell Signaling), E-cadherin (1:100 dilution, Abcam), and LGR5 (1:400 dilution, Abcam). The number of LGR5+ cells per organoid in each of the TNFα-treated group (n=10) and the TNFα-untreated group (n=10) was counted, and statistical analysis was performed by ANOVA using Bonferroni's multiple comparison test (*** p<0.001).

[5] = system: Crohn's disease patient-derived organoids; assay: Double immunofluorescence for CC3 and TUNEL, Crohn's disease patient-derived organoids; settings: 30 ng/mL TNFα; vs normal person-derived organoids
Procedure: (§7) Cell death by TNFα occurs through apoptosis or necroptosis. CC3 (cleaved caspase-3) is a marker capable of detecting cells in which apoptosis has occurred, and TUNEL staining can detect DNA fragmented due to apoptosis, and thus detect cells in which apoptosis or necroptosis has occurred. Therefore, CC3+ and TUNEL+ cells are cells in which apoptosis has occurred, and CC3− and […] cells are cells in which necroptosis has occurred.
(§8) CC3 staining was performed using primary rabbit antibodies specific for CC3 and a goat anti-rabbit secondary antibody conjugated to Alexa 594 fluorochrome (red fluorescence). In TUNEL staining, In Situ Cell Death Detection Kit (Merck) was used for the same sections in CC3 staining, and then fluorescein-labeled dUTP (green fluorescence) was used. DAPI was used to stain intracellular DNA. Statistical analysis was performed by ANOVA using Bonferroni's multiple comparison test (*** p<0.001).

LGR5 [6] = assay: Immunohistochemistry, LGR5+ cells per organoid, normal person-derived organoids; settings: TNFα-treated vs TNFα-untreated
Procedure: as §6

[7] = system: Crohn's disease patient-derived intestinal organoids; assay: MTT assay (cell viability), Crohn's disease patient-derived organoids
Procedure: as §1, §2, §5

[8] = system: Crohn's disease patient-derived organoids; assay: Wound healing assay, two-dimensional Crohn's disease patient-derived organoid monolayers
Procedure: (§9) For matrix coating, each well of the 24-well plate was coated at 37° C. for 1 hour with 500 μL of Matrigel diluted at a concentration of 51 in the basal medium. For two-dimensional culture, organoids in the three-dimensional culture were digested into single cells using TrypLE Express (Thermo Fisher). The digested cells were resuspended in the basal medium and seeded into Matrigel-coated wells.
(§10) For wound healing assay, 5×10^4 cells were seeded in wells of a 24-well plate containing inserts of CytoSelect™ 24-Well Wound Healing Assay. The two-dimensional organoid monolayers were cultured in maintenance medium until confluence was reached. The inserts were then carefully removed to produce 0.9-mm-diameter wounds, and 500 μL of fresh differentiation medium was added to each well. Then, the cells in the wound were monitored using a phase-contrast microscope at 0, 4, 8, 16, and 24 hours. At each time point, the area of the non-healed wound was measured in 3 different regions. Statistical analysis was performed by ANOVA using Bonferroni's multiple comparison test (* p<0.05, ** p<0.01 and *** p<0.001).
In addition, wound healing assay was performed in the same manner as in Experimental Example 7.
For the Crohn's disease patient-derived organoids of each experimental group, 30 ng/mL of human recombinant TNFα, or 10 nM of PGE2, and 1 or 10 μg/mL of infliximab were added to the culture medium daily. Statistical analysis was performed by ANOVA using Bonferroni's multiple comparison test (** p<0.01 and *** p<0.001).

[9] = system: normal person-derived organoids; assay: Wound healing assay, two-dimensional normal person-derived organoid monolayers; settings: TNFα-treated; 0-24 hours
Procedure: as §9, §10

[10] = system: normal person-derived organoids; assay: Double immunofluorescence for CC3 and TUNEL, normal person-derived organoids; settings: 30 ng/mL TNFα vs TNFα-untreated
Procedure: as §7, §8

[11] = system: Crohn's disease patient-derived organoids; assay: EdU assay (cell proliferation), Crohn's disease patient-derived organoids; settings: 30 ng/mL TNFα; vs normal person-derived organoids
Procedure: (§11) To evaluate the cell proliferation of organoids, each organoid was incubated for 2 hours in a medium containing 10 μM of EdU (5-ethynyl-2′-deoxyuridine) (Abcam), and then fixed with cold 41 paraformaldehyde (Biosesang). EDU incorporation in DNA was detected using Click-iT™ EdU Alexa Fluor® 488 imaging kit (Thermo Fisher). The number of EDU positive (+) cells in the organoids was counted using a confocal microscope (LSM 800, Carl Zeiss). Statistical analysis was performed by ANOVA using Bonferroni's multiple comparison test (* p<0.05 and *** p<0.001).

[12] = system: normal person-derived organoids; assay: EdU assay (cell proliferation), normal person-derived organoids; settings: 30 ng/mL TNFα vs TNFα-untreated
Procedure: as §11

LGR5 [13] = assay: FACS analysis for LGR5 in Crohn's disease patient-derived organoids; settings: 30 ng/mL TNFα + high concentration (infliximab 10 μg/mL or PGE2 10 nM)
Procedure: For the Crohn's disease patient-derived organoids of each experimental group, 30 ng/mL of human recombinant TNFα, or 10 nM of PGE2, and 1 or 10 μg/mL of infliximab were added to the culture medium daily.
To prepare single-cell suspensions from organoids, organoids were incubated with TrypLE Express in a water bath at 37° C. for 30 minutes. Then, the cells were washed with basal medium and collected by filtration through a 40-μm cell strainer. Flow cytometry for detecting the marker was performed using 1×10^5 cells. Cells were incubated with human Lgr5/GPR49 antibody (R&D Systems) in FACS buffer for 30 min. Unbound antibodies were washed out, and the cells were incubated with Alexa Fluor 488-conjugated anti-mouse immunoglobulin G secondary antibody (Thermo Fisher) for 30 minutes. The cells were then washed, resuspended in FACS buffer, and analyzed on the FACS Aria III instrument (BD Biosciences) to evaluate LGR5+ ISCs population.

LGR5 [14] = assay: qPCR for LGR5 in Crohn's disease patient-derived organoids; settings: TNFα 0, 30 or 100 ng/mL + high concentration (infliximab 10 μg/mL or PGE2 10 nM)
Procedure: For the Crohn's disease patient-derived organoids of each experimental group, 0, 30 or 100 ng/mL of human recombinant TNFα, 0, 5 or 10 nM of PGE2, and 0, 1 or 10 μg/mL of infliximab were added to the culture medium daily.
Total RNA was extracted from intestinal organoids using the RNeasy Mini Kit (QIAGEN). One-step qPCR was performed using the following primers together with One Step PrimeScript™ III RT-qPCR Mix (Takara): LGR5 primers (forward: 5′-[…]-3′, reverse: 5′-[…]-3′). Statistical analysis was performed by ANOVA using Bonferroni's multiple comparison test (* p<0.05 and *** p<0.001).

[15] = 0, 30 and 100 ng/mL TNFα, dependence on concentration
[16] = 30 ng/mL TNFα vs TNFα-untreated
[17] = 30 or 100 ng/mL human recombinant TNFα
[18] = TNFα 30 and 100 ng/mL + high concentration (infliximab 10 μg/mL or PGE2 10 nM)
[19] = 30 or 100 ng/mL TNFα + high concentration (infliximab 10 μg/mL, PGE2 10 nM)
[20] = 30 ng/mL TNFα + high concentration (infliximab 10 μg/mL or PGE2 10 nM), after 16 hours

TNFα
cell viability (MTT) [1, 15]: also decreased | cell viability (MTT) [1, 16]: decreased in both the jejunum and the ileum | organoid reconstitution rate [2, 15]: decreased | organoid reconstitution rate ([2]; 30 ng/mL TNFα vs not treated, differentiation medium 10 days, jejunum and ileum): decreased | organoid reconstitution rate ([3]; 30 ng/mL TNFα, differentiation medium 10 days, jejunum and ileum): decreased compared to those of the normal person-derived organoids | organoid reconstitution rate [3, 17]: decreased in a concentration-dependent manner | number of LGR5+ cells per organoid (LGR5 [4]): decreased in the Crohn's disease patient-derived organoids compared to the normal person-derived organoids | number of CC3−, TUNEL+ and CC3+, TUNEL+ cells (cell death) [5]: necroptosis more actively occurred than that in the normal person-derived organoids | number of LGR5+ cells per organoid (LGR5 [6]): increased | cell viability (MTT) [7, 16]: decreased in both the jejunum and the ileum | apoptosis [7, 17]: increased in a concentration-dependent manner | unhealed wound area ([8]; TNFα alone, 0-24 hours): no significant decrease in the unhealed wound area even over time | unhealed wound area [9]: the wound area was recovered after 16 hours | number of CC3−, TUNEL+ and CC3+, TUNEL+ cells (cell death) [10]: increased | number of EdU+ cells [11]: decreased compared to that of the normal person-derived organoids | number of EdU+ cells [12]: TNFα-untreated organoids increased compared to that in TNFα-treated organoids

infliximab
organoid reconstitution rate [2, 18]: the restoration of the organoid reconstitution rates was improved | organoid reconstitution rate [3, 19]: levels similar to those of TNFα-untreated normal person-derived organoids | organoid reconstitution rate ([3]; TNFα + low concentration infliximab (1 μg/mL) alone): did not completely restore | cell viability (MTT) [7, 19]: levels similar to those of TNFα-untreated normal person-derived organoids | unhealed wound area [8, 20]: reduced, compared to when the organoids were treated with TNFα alone | LGR5 expression (FACS, LGR5+ ISCs population) (LGR5 [13]): no difference in LGR5 expression from when the organoids were treated with TNFα | LGR5 expression (qPCR) (LGR5 [14]): no difference in LGR5 expression depending on the concentration of TNFα

CCCCC[C@H](O)/C=C/[C@H]1[C@H](O)CC(=O)[C@@H]1C/C=C\CCCC(=O)O [PGE2, prostaglandin E2]
cell viability (MTT) ([1]; 100 ng/mL TNFα + 10 nM PGE2): significantly improved compared to when the organoids were not treated with PGE2 | organoid reconstitution rate ([2]; 100 ng/mL TNFα + 10 nM PGE2): significantly improved compared to when the organoids were not treated with PGE2 | organoid reconstitution rate [2, 18]: the restoration of the organoid reconstitution rates was improved | organoid reconstitution rate [3, 19]: levels similar to those of TNFα-untreated normal person-derived organoids | cell viability (MTT) [7, 19]: levels similar to those of TNFα-untreated normal person-derived organoids | unhealed wound area [8, 20]: reduced, compared to when the organoids were treated with TNFα alone | LGR5 expression (FACS, LGR5+ ISCs population) (LGR5 [13]): increased | LGR5 expression (qPCR) (LGR5 [14]): increased
